Assay results published in the Deep4Chem optical property database.

Assay: solvent given as SMILES

## N#Cc1coc2ccccc2c1=O
In C1CCOC1
  fluorescence lifetime: 0.93 ns
In C1COCCO1
  fluorescence lifetime: 3.6 ns
In CC#N
  fluorescence lifetime: 2.17 ns
In CC(C)O
  fluorescence lifetime: 1.86 ns
In CCCCO
  fluorescence lifetime: 0.96 ns
In CCCO
  fluorescence lifetime: 2.03 ns
In CCOC(C)=O
  fluorescence lifetime: 1.05 ns
In CN(C)C=O
  fluorescence lifetime: 1.77 ns
In CO
  fluorescence lifetime: 0.59 ns
In CS(C)=O
  fluorescence lifetime: 1.92 ns
In ClC(Cl)Cl
  fluorescence lifetime: 2.54 ns
In O
  fluorescence lifetime: 1.36 ns

## CC1(C)c2ccccc2N(c2ccc(-c3nnc(-c4cc(-c5ccccc5)c(-c5ccccc5)c(-c5ccccc5)c4-c4ccccc4)o3)cc2)c2ccccc21
In c1ccc(-n2c(-c3c(-n4c5ccccc5c5ccccc54)cccc3-n3c4ccccc4c4ccccc43)nc3ccccc32)cc1
  fluorescence lifetime: 5.5 ns

## CC1=CC(/C=C/c2ccc([N+](C)(C)C)cc2)=[N+]2C1=C(c1ccc(I)cc1)c1c(C)cc(/C=C/c3ccc([N+](C)(C)C)cc3)n1[B-]2(F)F
In CC#N
  fluorescence lifetime: 5.1 ns

## Fc1ccc(N(c2ccccc2)c2ccc3ccc4c(N(c5ccccc5)c5ccc(F)cc5)ccc5ccc2c3c54)cc1
In ClCCl
  fluorescence lifetime: 5.5 ns

## Cc1cc(-c2nnc(-c3ccccc3)o2)ccc1-n1c2ccccc2c2ccccc21
In CCO
  fluorescence lifetime: 1.82 ns

## Cc1cc(C(F)(F)F)nc2c1ccc1nc(-c3ccc(Cl)cc3)cn12
In CC#N
  fluorescence lifetime: 8.1 ns
In CCCCOC(C)=O
  fluorescence lifetime: 6.83 ns
In CCOC(C)=O
  fluorescence lifetime: 6.72 ns
In CO
  fluorescence lifetime: 7.89 ns
In c1ccccc1
  fluorescence lifetime: 6.26 ns

## COc1ccc(C(=O)c2c(C)c3ccc4cccc5c6cccc7ccc2c(c76)c3c45)cc1
In ClCCl
  fluorescence lifetime: 5.6 ns

## F[B-]12Oc3ccccc3-c3c4[n+]5c(c([n+]31)-c1ccccc1O2)-c1ccccc1O[B-]5(F)Oc1ccccc1-4
In ClCCl
  fluorescence lifetime: 4.52 ns

## O=C1NC(=O)c2ccc3c4ccc5c6c(ccc(c7ccc1c2c73)c64)C(=O)N(c1ccc(Cl)cc1)C5=O
In CN(C)C=O
  fluorescence lifetime: 3.1 ns

## CCCCCCN1C(=O)c2cccc3c(-c4scc5c4OCCO5)ccc(c23)C1=O
In ClC(Cl)Cl
  fluorescence lifetime: 3.51 ns

## COc1ccc([Si](C)(C)C)c2ccccc12
In C1CCCCC1
  fluorescence lifetime: 10 ns

## C(#Cc1ccccc1)C(C#Cc1ccccc1)=Cc1ccc(C=C(C#Cc2ccccc2)C#Cc2ccccc2)cc1
In ClC(Cl)Cl
  fluorescence lifetime: 1.2 ns

## CCn1c2ccccc2c2cc(-c3cc(-c4ccc5c(c4)c4ccccc4n5CC)nc(-c4ccccc4)n3)ccc21
In C1CCOC1
  fluorescence lifetime: 1.77 ns

## C[Si](C)(C)c1ccc2ccc3c([Si](C)(C)C)ccc4ccc1c2c43
In CCCCCC
  fluorescence lifetime: 53.7 ns
In CO
  fluorescence lifetime: 71.8 ns
In ClCCl
  fluorescence lifetime: 65.5 ns

## O=C1NC(=O)c2ccc3c4ccc5c6c(ccc(c7ccc1c2c73)c64)C(=O)N(c1ccc(O)cc1)C5=O
In CN(C)C=O
  fluorescence lifetime: 2.8 ns

## COc1ccc(-c2c3cc4ccccc4cc3c(-c3ccc(OC)cc3)c3cc4sc(C)cc4cc23)cc1
In ClCCl
  fluorescence lifetime: 15.4 ns

## Cc1ccc(C2=Cc3c4ccccc4cc[n+]3[B-](F)(F)O2)cc1
In ClC(Cl)Cl
  fluorescence lifetime: 0.377 ns

## c1ccc(-c2nc(-c3ccc(-c4nc(-c5ccccc5)c(-c5ccccc5)[nH]4)cc3)[nH]c2-c2ccccc2)cc1
In CC#N
  fluorescence lifetime: 1.11 ns
In CS(C)=O
  fluorescence lifetime: 1.05 ns

## Cc1cc(C)c2nc3c(=O)[nH]c(=O)[nH]c3nc2c1
In CC#N
  fluorescence lifetime: 1.24 ns

## COc1ccc(-c2cc(-c3ccc(OC)cc3)c3c(N)nc(N4CCCC4)c(C#N)c3n2)cc1
In CC#N
  fluorescence lifetime: 11.6 ns
In CC(C)=O
  fluorescence lifetime: 10 ns
In CC(C)O
  fluorescence lifetime: 11.6 ns
In CO
  fluorescence lifetime: 10.3 ns
In ClC(Cl)Cl
  fluorescence lifetime: 11.6 ns
In ClCCl
  fluorescence lifetime: 13.2 ns
In c1ccccc1
  fluorescence lifetime: 12 ns

## C(=C\c1nc(/C=C/c2ccc(-n3c4ccccc4c4ccccc43)cc2)nc(/C=C/c2ccc(-n3c4ccccc4c4ccccc43)cc2)n1)/c1ccc(-n2c3ccccc3c3ccccc32)cc1
In C1CCOC1
  fluorescence lifetime: 3.31 ns
In CC#N
  fluorescence lifetime: 2.03 ns
In Cc1ccccc1
  fluorescence lifetime: 3.87 ns
In ClCCl
  fluorescence lifetime: 4.03 ns

## Cc1nnc(-c2cc(-n3c4ccccc4c4ccccc43)c(-n3c4ccccc4c4ccccc43)cc2-c2nnc(C)o2)o1
In Cc1ccccc1
  fluorescence lifetime: 14.5 ns

## CC1=[N+]2C(=C(c3ccc(C(=C(c4ccccc4)c4ccccc4)c4ccccc4)cc3)c3ccc(/C=C/c4ccc(C(=C(c5ccccc5)c5ccccc5)c5ccccc5)cc4)n3[B-]2(F)F)C=C1
In C1CCOC1
  fluorescence lifetime: 3.5 ns

## CCCCCCN1C(=O)c2cccc3cc(/N=C\c4ccc5c(c4)c4ccccc4n5CC)cc(c23)C1=O
In ClC(Cl)Cl
  fluorescence lifetime: 8.97 ns

## COc1ccc(C2=Cc3ccc4ccccc4[n+]3[B-](F)(F)O2)cc1
In ClC(Cl)Cl
  fluorescence lifetime: 2.3 ns

## C[n+]1ccc(-c2cc[n+](C)cc2)cc1
In CC#N
  fluorescence lifetime: 0.9 ns

## CC1=CC(c2ccc3cc(N(C)C)ccc3c2)=[O+][B-](F)(F)O1
In C1CCOC1
  fluorescence lifetime: 3.56 ns
In CC#N
  fluorescence lifetime: 1.02 ns
In CC(C)=O
  fluorescence lifetime: 2.72 ns
In CS(C)=O
  fluorescence lifetime: 1.47 ns
In Cc1ccccc1
  fluorescence lifetime: 4.08 ns
In ClC(Cl)Cl
  fluorescence lifetime: 3.46 ns
In ClCCl
  fluorescence lifetime: 3.69 ns

## Cn1c2ccccc2c2cc(/C=C/C3=[O+][B-](F)(F)OC(/C=C/c4ccc5c(c4)c4ccccc4n5C)=C3c3ccccc3)ccc21
In ClCCl
  fluorescence lifetime: 2.15 ns

## COc1ccc2cc([C@H](C)C(=O)O)ccc2c1
In C1CCOC1
  fluorescence lifetime: 11 ns
In CC#N
  fluorescence lifetime: 9.96 ns
In CC(C)O
  fluorescence lifetime: 10.8 ns
In CCCCO
  fluorescence lifetime: 11.4 ns
In CCO
  fluorescence lifetime: 10.4 ns
In CO
  fluorescence lifetime: 8.48 ns
In ClCCl
  fluorescence lifetime: 6.93 ns
In O
  fluorescence lifetime: 9.6 ns

## O=C1c2ccccc2C2=C(c3ccccn3)NN=C(c3ccccn3)C2c2ccccc21 (stereo not given)
In CC#N
  fluorescence lifetime: 12.8 ns

## c1ccc(-c2cc(-c3ccccc3)cc(-c3ccc4c(c3)C3(c5cc(-c6cc(-c7ccccc7)cc(-c7ccccc7)c6)ccc5-4)c4ccccc4-c4c3c3c5ccccc5ccc3c3ccccc43)c2)cc1
In Cc1ccccc1
  fluorescence lifetime: 3.07 ns

## CC1=[N+]2C(=C(c3ccc(C=O)cc3)c3ccc(C)n3[B-]2(F)F)C=C1c1cc2n(c1)[B-](F)(F)[N+]1=CC=CC1=C2c1c(C)cc(C)cc1C
In C1CCCCC1
  fluorescence lifetime: 2.7 ns
In CCOC(C)=O
  fluorescence lifetime: 0.9 ns

## COc1ccc2c3ccc(OC)cc3c3cc4c(C)cc(=O)oc4cc3c2c1
In ClC(Cl)Cl
  fluorescence lifetime: 6.2 ns

## COc1ccc2cc(/C=C/c3ccc([N+](=O)[O-])cc3)c(=O)oc2c1
In CC#N
  fluorescence lifetime: 1.23 ns

## CCN(CC)c1ccc2cc3c(cc2c1)C1(c2ccccc2Oc2ccccc21)c1cc2cc(N(CC)CC)ccc2cc1C3=O
In CC#N
  fluorescence lifetime: 2.5 ns

## Nc1ccccn1
In C1CCCCC1
  fluorescence lifetime: 24.2 ns
In CC#N
  fluorescence lifetime: 5 ns
In CCO
  fluorescence lifetime: 5.1 ns
In CCOCC
  fluorescence lifetime: 10.8 ns
In O
  fluorescence lifetime: 24.4 ns

## CN(C)c1ccc(C2=Nc3scc(-c4ccc(C#N)cc4)[n+]3[B-](F)(F)O2)cc1
In C1CCOC1
  fluorescence lifetime: 1.69 ns

## COc1ccc(C2=CC(c3ccccc3)=[N+]3C2=Nc2c(-c4ccc(OC)cc4)cc(-c4ccccc4)n2[B-]3(F)F)cc1
In Cc1ccccc1
  fluorescence lifetime: 1.56 ns

## CN(C)c1ccc2nc(-c3ccccc3)sc2c1
In C1CCCCC1
  fluorescence lifetime: 2.1 ns

## CN(C)c1ccc(-c2ccc(C#N)s2)s1
In CCO
  fluorescence lifetime: 2.72 ns

## Cc1cccc2c3ccccc3n(-c3ccc(-c4c(-c5ccccc5)c(C#N)c(C#N)c(-c5ccccc5)c4-c4ccc(-n5c6ccccc6c6cccc(C)c65)cc4)cc3)c12
In O=P(c1ccccc1)(c1ccccc1)c1ccc2oc3ccc(P(=O)(c4ccccc4)c4ccccc4)cc3c2c1
  fluorescence lifetime: 41 ns

## CN(C)c1ccc(-c2ccc(-c3nc(C#N)c(C#N)n3C)cc2)cc1
In C1CCCCC1
  fluorescence lifetime: 1 ns
In ClC(Cl)Cl
  fluorescence lifetime: 2 ns

## Cc1ccc(C2=C3C=CC(Cl)=[N+]3[B-](F)(F)n3c(Cl)ccc32)cc1
In C1CCCCC1
  fluorescence lifetime: 2.1 ns
In C1CCOC1
  fluorescence lifetime: 2.1 ns
In CC#N
  fluorescence lifetime: 1.87 ns
In CCOC(C)=O
  fluorescence lifetime: 2.07 ns
In CO
  fluorescence lifetime: 1.88 ns
In Cc1ccccc1
  fluorescence lifetime: 3.26 ns
In ClC(Cl)Cl
  fluorescence lifetime: 3.66 ns

## CN(C)c1ccc(C(=Cc2ccc(C#N)cc2)c2ccc(N(C)C)cc2)cc1
In C1CCOC1
  fluorescence lifetime: 7.1 ns

## CCCCn1c(-c2ccc(-c3nnc(-c4cccs4)o3)cc2)nc(-c2ccccc2)c1-c1ccccc1
In ClCCl
  fluorescence lifetime: 1.65 ns

## CN(C)CCCN1c2ccccc2Sc2ccccc21
In CC#N
  fluorescence lifetime: 1.85 ns
In CO
  fluorescence lifetime: 1.75 ns
In O
  fluorescence lifetime: 2.04 ns
